Usually DC50 stands for the midpoint of the concentration-degradation curve.

Like-named read-outs stand apart in the source and are kept apart here. *1 amine or outer side, *2 acyl side, *3 side chain or, on linkers, in order; H or OH if unused. Where a SMILES comes first, the peptide text is derived from it. [ ]: non-standard residue; d: D form. The star is where a group is joined. Benzothienyl2CO(5-CF2PO3H2) = O=C(c1cc2cc(C(F)(F)P(=O)(O)O)ccc2s1)*; βAla(N-(4-Br-phenyl)) = O=C(CCN(c1ccc(Br)cc1)[*:1])[*:2]; NHBn(4-(4-Me-thiazol-5-yl)) = Cc1ncsc1-c1ccc(CN*)cc1; Hyp = O=C(O)[C@@H]1C[C@@H](O)CN1; Tle = CC(C)(C)[C@H](N)C(=O)O; Ahx = NCCCCCC(=O)O Bounds are passed on as bounds.

The values that follow come from patent US20230295197A1, “STAT5 and STAT6 Degraders and Uses Thereof” (REGENTS OF THE UNIVERSITY OF MICHICAN, priority 2022, published 2023).

In the assay the target is T1, STAT6 (Homo sapiens, UniProt P42226).
T1 construct: endogenous in cells; host or cells: MOLM-16, KU-812, SKNO1, MB231, L1236
T1 sequence (P42226 1-847): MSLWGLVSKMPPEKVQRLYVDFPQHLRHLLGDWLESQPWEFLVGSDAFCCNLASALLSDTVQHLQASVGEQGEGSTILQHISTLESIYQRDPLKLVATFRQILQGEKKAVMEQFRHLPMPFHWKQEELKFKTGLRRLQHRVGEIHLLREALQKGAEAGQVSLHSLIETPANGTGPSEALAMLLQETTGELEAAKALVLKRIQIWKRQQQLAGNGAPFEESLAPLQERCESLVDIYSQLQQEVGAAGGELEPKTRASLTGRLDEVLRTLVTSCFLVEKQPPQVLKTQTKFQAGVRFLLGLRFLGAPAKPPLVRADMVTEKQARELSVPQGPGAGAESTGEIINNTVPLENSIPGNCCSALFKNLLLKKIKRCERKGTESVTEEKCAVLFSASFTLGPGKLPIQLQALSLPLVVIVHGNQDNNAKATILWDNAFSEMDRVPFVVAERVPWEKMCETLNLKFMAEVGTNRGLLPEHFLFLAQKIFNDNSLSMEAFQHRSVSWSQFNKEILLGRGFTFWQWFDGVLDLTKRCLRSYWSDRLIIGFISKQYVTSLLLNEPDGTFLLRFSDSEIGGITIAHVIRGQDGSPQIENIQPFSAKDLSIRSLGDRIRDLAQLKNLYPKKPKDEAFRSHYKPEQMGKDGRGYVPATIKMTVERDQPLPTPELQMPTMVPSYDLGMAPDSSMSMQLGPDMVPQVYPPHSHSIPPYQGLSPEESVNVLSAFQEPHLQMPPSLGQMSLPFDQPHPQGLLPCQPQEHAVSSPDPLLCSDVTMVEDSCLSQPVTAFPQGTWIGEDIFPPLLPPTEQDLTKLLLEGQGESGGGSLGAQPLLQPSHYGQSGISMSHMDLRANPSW
Briefly: Immunoblotting (Western blot) analysis of STAT6 degradation efficiency of degraders in treated cells. It is filed as cell-based. The method in brief:
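Degradation read by quantitative near-infrared Western blot: equal protein loads (20-40 μg) from compound-treated versus untreated cells, probed overnight at 4° C. for STAT5 or STAT6 with GAPDH reference. Compound concentrations and exposure times as indicated; cells grown in medium with 10% FBS at 37° C.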
In general terms: Immunoblotting shows a protein as a band on a membrane.

The mark [1] stands for this setting: MOLM-16 cells, class symbols, read-out: DC50 S6 MOLM-16.
Where [2] appears, read: L1236 cells, read-out: DC50 S6 L1236.

For `CC(C)(C)[C@H](NC(=O)c1cc2cc(C(F)(F)P(=O)(O)O)ccc2s1)C(=O)N1C[C@@H](OCC(=O)NCCCCCCCCCC#Cc2cccc3c2C(=O)N(C2CCC(=O)NC2=O)C3=O)C[C@H]1C(=O)N1CCC[C@H](c2ccccc2)C1` (stereo partly drawn) [Compound 505, ((2-(((2S)-1-((2S,4S)-4-(2-((11-(2-(2,6-dioxopiperidin-3-yl)-1,3-dioxoisoindolin-4-yl)undec-10-yn-1-yl)amino)-2-oxoethoxy)-2-((R)-3-phenylpiperidine-1-carbonyl)pyrrolidin-1-yl)-3,3-dimethyl-1-oxobutan-2-yl)carbamoyl)benzo[b]thiophen-5-yl)difluoromethyl)phosphonic acid], the DC50 under setting [1] is more than 10 µM. Consider `Cc1ncsc1-c1ccc(CNC(=O)[C@@H]2C[C@@H](O)CN2C(=O)[C@@H](NC(=O)CCCCCNC(=O)CCN(C(=O)[C@@H]2CCCN2C(=O)[C@@H](NC(=O)c2cc3cc(C(F)(F)P(=O)(O)O)ccc3s2)C(C)(C)C)c2ccc(Br)cc2)C(C)(C)C)cc1` [Compound 400] ({Benzothienyl2CO(5-CF2PO3H2)}-[Tle]P[βAla(N-(4-Br-phenyl))][Ahx][Tle][Hyp]-{NHBn(4-(4-Me-thiazol-5-yl))}), for which the DC50 (read-out: DC50 S6 MB231, MB231 cells) was more than 10 µM. As for `O=C1CCC(N2Cc3c(C#CCCCCCC(=O)N4CC[C@H]5CC[C@@H](C(=O)N6CCOC(c7ccc(F)c(Cl)c7)C6)N5C(=O)[C@@H](NC(=O)c5cc6cc(C(F)(F)P(=O)(O)O)ccc6s5)C4)cccc3C2=O)C(=O)N1` (stereo partly drawn) [Compound 564, ((2-(((5S,8S,10aR)-8-(2-(3-chloro-4-fluorophenyl)morpholine-4-carbonyl)-3-(8-(2-(2,6-dioxopiperidin-3-yl)-1-oxoisoindolin-4-yl)oct-7-ynoyl)-6-oxodecahydropyrrolo[1,2-a][1,5]diazocin-5-yl)carbamoyl)benzo[b]thiophen-5-yl)difluoromethyl)phosphonic acid], the DC50 is, setting by setting: under setting [2], more than 10 µM; under setting [1], more than 10 µM.

In the case of `Cc1ncsc1-c1ccc([C@H](C)NC(=O)[C@@H]2C[C@@H](O)CN2C(=O)[C@@H](NC(=O)CCCCCCCCNC(=O)CO[C@H]2C[C@@H](C(=O)N3CCC[C@H](c4ccccc4)C3)N(C(=O)[C@@H](NC(=O)c3cc4cc(C(F)(F)P(=O)(O)O)ccc4s3)C(C)(C)C)C2)C(C)(C)C)cc1` [Compound 441, (difluoro(2-(((S)-1-((2S,4S)-4-(2-((9-(((S)-1-((2S,4R)-4-hydroxy-2-(((S)-1-(4-(4-methylthiazol-5-yl)phenyl)ethyl)carbamoyl)pyrrolidin-1-yl)-3,3-dimethyl-1-oxobutan-2-yl)amino)-9-oxononyl)amino)-2-oxoethoxy)-2-((R)-3-phenylpiperidine-1-carbonyl)pyrrolidin-1-yl)-3,3-dimethyl-1-oxobutan-2-yl)carbamoyl)benzo[b]thiophen-5-yl)methyl)phosphonic acid], the DC50 is, setting by setting: under setting [2], more than 10 µM; under setting [1], more than 10 µM.

For `Cc1ncsc1-c1ccc(CNC(=O)[C@@H]2C[C@@H](O)CN2C(=O)[C@@H](NC(=O)CCCCCNC(=O)CO[C@@H]2C[C@@H](C(=O)N(C)c3ccc(Br)cc3)N(C(=O)[C@@H](NC(=O)c3cc4cc(C(F)(F)P(=O)(O)O)ccc4s3)C(C)(C)C)C2)C(C)(C)C)cc1` [Compound 417, ((2-(((S)-1-((2S,4R)-2-((4-bromophenyl)(methyl)carbamoyl)-4-(2-((6-(((S)-1-((2S,4R)-4-hydroxy-2-((4-(4-methylthiazol-5-yl)benzyl)carbamoyl)pyrrolidin-1-yl)-3,3-dimethyl-1-oxobutan-2-yl)amino)-6-oxohexyl)amino)-2-oxoethoxy)pyrrolidin-1-yl)-3,3-dimethyl-1-oxobutan-2-yl)carbamoyl)benzo[b]thiophen-5-yl)difluoromethyl)phosphonic acid], the DC50 by setting is: under setting [2], more than 10 µM; (MB231 cells, read-out: DC50 S6 MB231) more than 10 µM.

Turning to `CC(C)(C)[C@H](NC(=O)c1cc2cc(C(F)(F)P(=O)(O)O)ccc2s1)C(=O)N1C[C@@H](OCC(=O)NCCCCC#Cc2ccc3c(c2)C(=O)N(C2CCC(=O)NC2=O)C3=O)C[C@H]1C(=O)N1CCO[C@H](c2ccccc2)C1` (stereo partly drawn) [Compound 486, ((2-(((2S)-1-((2S,4S)-4-(2-((6-(2-(2,6-dioxopiperidin-3-yl)-1,3-dioxoisoindolin-5-yl)hex-5-yn-1-yl)amino)-2-oxoethoxy)-2-((R)-2-phenylmorpholine-4-carbonyl)pyrrolidin-1-yl)-3,3-dimethyl-1-oxobutan-2-yl)carbamoyl)benzo[b]thiophen-5-yl)difluoromethyl)phosphonic acid], under setting [1], the DC50 is more than 10 µM. For `O=C1CCC(N2Cc3cc(C#CCCCCCC(=O)N4CC[C@H]5CC[C@@H](C(=O)N6CC[C@@H](c7ccccc7)C6)N5C(=O)[C@@H](NC(=O)c5cc6cc(C(F)(F)P(=O)(O)O)ccc6s5)C4)ccc3C2=O)C(=O)N1` (stereo partly drawn) [Compound 574, ((2-(((5S,8S,10aR)-3-(8-(2-(2,6-dioxopiperidin-3-yl)-1-oxoisoindolin-5-yl)oct-7-ynoyl)-6-oxo-8-((S)-3-phenylpyrrolidine-1-carbonyl)decahydropyrrolo[1,2-a][1,5]diazocin-5-yl)carbamoyl)benzo[b]thiophen-5-yl)difluoromethyl)phosphonic acid], the DC50 is, setting by setting: under setting [2], more than 10 µM; under setting [1], more than 10 µM. In the case of `CC(C)(C)[C@H](NC(=O)c1cc2cc(C(F)(F)P(=O)(O)O)ccc2s1)C(=O)N1CCN(C(=O)CC(=O)NCCCCCCCCCC#Cc2cccc3c2C(=O)N(C2CCC(=O)NC2=O)C3=O)C[C@H]1C(=O)N1CCC[C@H](c2ccccc2)C1` (stereo partly drawn) [Compound 533, ((2-(((2S)-1-((2S)-4-(3-((11-(2-(2,6-dioxopiperidin-3-yl)-1,3-dioxoisoindolin-4-yl)undec-10-yn-1-yl)amino)-3-oxopropanoyl)-2-((R)-3-phenylpiperidine-1-carbonyl)piperazin-1-yl)-3,3-dimethyl-1-oxobutan-2-yl)carbamoyl)benzo[b]thiophen-5-yl)difluoromethyl)phosphonic acid], the DC50 under setting [1] is more than 10 µM.

Consider `Cc1ncsc1-c1ccc([C@H](C)NC(=O)[C@@H]2C[C@@H](O)CN2C(=O)[C@@H](NC(=O)CCCCCCNC(=O)CO[C@H]2C[C@@H](C(=O)N3CCC[C@H](c4ccccc4)C3)N(C(=O)[C@@H](NC(=O)c3cc4cc(C(F)(F)P(=O)(O)O)ccc4s3)C(C)(C)C)C2)C(C)(C)C)cc1` [Compound 439, (difluoro(2-(((S)-1-((2S,4S)-4-(2-((7-(((S)-1-((2S,4R)-4-hydroxy-2-(((S)-1-(4-(4-methylthiazol-5-yl)phenyl)ethyl)carbamoyl)pyrrolidin-1-yl)-3,3-dimethyl-1-oxobutan-2-yl)amino)-7-oxoheptyl)amino)-2-oxoethoxy)-2-((R)-3-phenylpiperidine-1-carbonyl)pyrrolidin-1-yl)-3,3-dimethyl-1-oxobutan-2-yl)carbamoyl)benzo[b]thiophen-5-yl)methyl)phosphonic acid], for which the DC50 runs as follows: under setting [2], more than 10 µM; under setting [1], more than 10 µM. Turning to `Cc1ncsc1-c1ccc([C@H](C)NC(=O)[C@@H]2C[C@@H](O)CN2C(=O)[C@@H](NC(=O)CCCCNC(=O)COc2ccc3c(c2)CN(C(=O)[C@@H](NC(=O)c2cc4cc(C(F)(F)P(=O)(O)O)ccc4s2)C(C)(C)C)[C@H](C(=O)N2CCC[C@H](c4ccccc4)C2)C3)C(C)(C)C)cc1` [Compound 473, (difluoro(2-(((S)-1-((S)-7-(2-((5-(((S)-1-((2S,4R)-4-hydroxy-2-(((S)-1-(4-(4-methylthiazol-5-yl)phenyl)ethyl)carbamoyl)pyrrolidin-1-yl)-3,3-dimethyl-1-oxobutan-2-yl)amino)-5-oxopentyl)amino)-2-oxoethoxy)-3-((R)-3-phenylpiperidine-1-carbonyl)-3,4-dihydroisoquinolin-2(1H)-yl)-3,3-dimethyl-1-oxobutan-2-yl)carbamoyl)benzo[b]thiophen-5-yl)methyl)phosphonic acid], under setting [1], the DC50 is more than 10 µM. Still for that read-out and setting: the result for `CC(C)(C)[C@H](NC(=O)c1cc2cc(C(F)(F)P(=O)(O)O)ccc2s1)C(=O)N1C[C@@H](OCC(=O)NCCCCC#Cc2cccc3c2C(=O)N(C2CCC(=O)NC2=O)C3=O)C[C@H]1C(=O)N1CCC[C@H](c2ccccc2)C1` (stereo partly drawn) [Compound 499, ((2-(((2S)-1-((2S,4S)-4-(2-((6-(2-(2,6-dioxopiperidin-3-yl)-1,3-dioxoisoindolin-4-yl)hex-5-yn-1-yl)amino)-2-oxoethoxy)-2-((R)-3-phenylpiperidine-1-carbonyl)pyrrolidin-1-yl)-3,3-dimethyl-1-oxobutan-2-yl)carbamoyl)benzo[b]thiophen-5-yl)difluoromethyl)phosphonic acid] reads more than 10 µM.
